# Data published in US9274101B2 (BIOLOG, Inc., priority 2001, dated 2016).
# What was measured:
# E. coli MG1655 = assay type: cell-based, Escherichia coli
# [1] = tested on: Undifferentiated HL-60 cells; test: Energy use by undifferentiated HL-60 cells; assay type: cell-based, human; conditions: for activity at 30 µM / activity at 100 µM / activity at 330 µM / activity at 1000 µM / activity at 3300 µM / activity at 10000 µM / activity at 15000 µM / activity at 20000 µM: Homo sapiens, HL-60, 24 h, read-out: Energy Use by Undifferentiated HL-60 Cells; for activity at 30 µM: Conc. 0.03 mM; for activity at 100 µM: Conc. 0.10 mM; for activity at 330 µM: Conc. 0.33 mM; for activity at 1000 µM: Conc. 1.00 mM; for activity at 3300 µM: Conc. 3.3 mM; for activity at 10000 µM: Conc. 10 mM; for activity at 15000 µM: Conc. 15 mM; for activity at 20000 µM: Conc. 20 mM
# HL-60 cells = test: HL-60 responses to selected compounds at a range of concentrations; assay type: cell-based, human; conditions: for response in words: 0.033 to 20 mM; for activity at 30 µM / activity at 100 µM / activity at 330 µM / activity at 1000 µM / activity at 3300 µM / activity at 10000 µM / activity at 15000 µM / activity at 20000 µM: Homo sapiens, HL-60, read-out: HL-60 Cell Responses to Selected Compounds from PM1 and PM2; for activity at 30 µM: Conc. 0.03 mM; for activity at 100 µM: Conc. 0.10 mM; for activity at 330 µM: Conc. 0.33 mM; for activity at 1000 µM: Conc. 1.00 mM; for activity at 3300 µM: Conc. 3.3 mM; for activity at 10000 µM: Conc. 10 mM; for activity at 15000 µM: Conc. 15 mM; for activity at 20000 µM: Conc. 20 mM
# Procedure: In this Example, methods for testing unattached cells for their ability to use various concentrations of selected carbon sources are described. The carbon sources used in this Example were identified by the methods disclosed in Example 27. Similarly, HL-60 cells were cultured as described in Example 27.
# After washing, HL-60 cells were resuspended in DME-R. An aliquot of the cell suspension was counted by trypan blue exclusion and the cell density was adjusted to 6.67×10^5/mL. Fifty μL of DME-R were added to each well of the appropriate number of half area, 96-well plates, followed by 23 μL of the appropriate dilution of each test energy source. Stocks of 133 mM of each test chemical were prepared in tissue culture grade water, sterile filtered, and dilutions were prepared in a master plate so that, upon dilution in a total volume of 150 μL, the final concentrations would be 0.033 to 20 mM. Negative control wells received 23 μL of tissue culture grade water. The cells were plated at a volume of 75 μL/well, giving a final cell density of 5×10^4/well. For each plate containing energy sources and cells, a second, control plate containing only energy sources was prepared. Plates were incubated at 5% CO2, 90-100% humidity, and 37° C. for 24 hours prior to addition of the MTS/MPMS colorometric reagent (7.5 μL/well). The color formed in each well after an additional 24 hour incubation period, was measured on a plate reader at 490 nm with a reference wavelength of 650 nm. OD values from the control plate were subtracted from the OD values obtained with cells prior to normalizing the data to % negative control (cells without added energy source).
# [2] = tested on: DMSO-differentiated HL-60 cells; test: Energy use by DMSO-differentiated HL-60 cells; assay type: cell-based, human; conditions: Homo sapiens, HL-60, 24 h, read-out: Energy Use by DMSO-Differentiated HL-60 Cells; for activity at 30 µM: Conc. 0.03 mM; for activity at 100 µM: Conc. 0.10 mM; for activity at 330 µM: Conc. 0.33 mM; for activity at 1000 µM: Conc. 1.00 mM; for activity at 3300 µM: Conc. 3.3 mM; for activity at 10000 µM: Conc. 10 mM; for activity at 15000 µM: Conc. 15 mM; for activity at 20000 µM: Conc. 20 mM
# Procedure: In this Example, methods for testing in vitro-differentiated cells for their ability to use multiple energy sources are described. Prior to differentiation, HL-60 cells were cultured as described in Example 27. DMSO-induced differentiation (Odani et al., Res. Commun. Mol. Pathol. Pharmacol. 108:381-391 [2000]; and Yamaguchi et al., Biol. Pharm. Bull. 20:943-947 [1997]) was accomplished by incubation of the cells in the presence of 1.25% DMSO for 3 days.
# After washing, HL-60 cells were resuspended in DME-R. An aliquot of the cell suspension was counted by trypan blue exclusion and the cell density was adjusted to 6.67×10^5/mL. Fifty μL of DME-R were added to each well of the appropriate number of half area, 96-well plates, followed by 25 μL of the appropriate dilution of each test energy source. Stocks of 133 mM of each test chemical were prepared in tissue culture grade water, sterile filtered, and dilutions were prepared in a master plate so that, upon dilution into a half-area 96-well microtiter plate to a total well volume of 150 μL, the final concentrations would be 0.033 to 20 mM. Negative control wells received 25 μL of tissue culture grade water. The cells were plated at a volume of 75 μL/well, giving a final cell density of 5×10^4/well. For each plate containing energy sources and cells, a second, control plate containing only energy sources was prepared with the same total volume of liquid (148 μL/well). Plates were incubated at 5% CO2, 90-100% humidity, and 37° C. for 24 hours prior to addition of the MTS/MPMS calorimetric reagent (7.5 μL/well). The color formed in each well 24 hours after addition of the colorimetric reagent, was measured with a plate reader at 490 nm with a reference wavelength of 650 nm. OD values from the control plate were subtracted from the OD values obtained with cells prior to normalizing the data to % negative control (cells without added energy source).
SMILES,"suitability as nitrogen source (growth, purple color) (E. coli MG1655)",activity at 30 µM [1] [%],activity at 100 µM [1] [%],activity at 330 µM [1] [%],activity at 1000 µM [1] [%],activity at 3300 µM [1] [%],activity at 10000 µM [1] [%],activity at 15000 µM [1] [%],activity at 20000 µM [1] [%],response in words (HL-60 cells),activity at 30 µM (HL-60 cells) [%],activity at 100 µM (HL-60 cells) [%],activity at 330 µM (HL-60 cells) [%],activity at 1000 µM (HL-60 cells) [%],activity at 3300 µM (HL-60 cells) [%],activity at 10000 µM (HL-60 cells) [%],activity at 15000 µM (HL-60 cells) [%],activity at 20000 µM (HL-60 cells) [%],activity at 30 µM [2] [%],activity at 100 µM [2] [%],also measured
NC(=O)C[C@H](N)C(=O)O [L-asparagine],positive,128,118,118,124,136,141,153,157,"strongly utilized, even at very low concentrations",134,149,138,149,135,137,128,118,106,112,activity at 330 µM [2]: 122%; activity at 1000 µM [2]: 143%; activity at 3300 µM [2]: 153%; activity at 10000 µM [2]: 167%; activity at 15000 µM [2]: 152%; activity at 20000 µM [2]: 134%
NC(=O)CC[C@H](N)C(=O)O [L-glutamine],positive,167,214,227,237,249,220,198,172,"strongly utilized, even at very low concentrations",147,161,162,168,161,151,127,92,110,149,energy source use in words ([1]; undifferentiated HL-60 cells): responsive to high concentrations; activity at 330 µM [2]: 154%; activity at 1000 µM [2]: 156%; activity at 3300 µM [2]: 172%; activity at 10000 µM [2]: 157%; activity at 15000 µM [2]: 121%; activity at 20000 µM [2]: 109%
